Data published in PubChem BioAssay AID1996.
Values after ≈ are worked out from the molar mass of the structure shown.

settings: buffer; pH 7.4; 200.0 µM

Structure (SMILES)	solubility kinetic
O=C(Nc1ccc(S(=O)(=O)N2CCOCC2)cc1)c1cccnc1	> 52.1 µg/mL
O=C(O)c1ccc(CNC(=O)c2ccc3c(c2)C(=O)N(Cc2cccnc2)C3=O)cc1	> 62.3 µg/mL
COC(=O)c1ccc(OCC(=O)N2CCCc3ccccc32)cc1	45 µg/mL (≈ 138 µM)
CN(CC(=O)Nc1ccc(Cl)cc1)C(=O)Cc1c(F)cccc1Cl	14.6 µg/mL (≈ 39.5 µM)
Cc1ccc(NC(=O)COC(=O)c2nn(C)cc2Cl)cc1	> 46.2 µg/mL
CN(CC(=O)Nc1ccccc1C(=O)Nc1ccccc1)C1CCCCC1	2.4 µg/mL (≈ 6.57 µM)
O=C(CN1C(=O)NC(c2ccccc2)(c2ccccc2)C1=O)N1CCCCC1	6.2 µg/mL (≈ 16.4 µM)
Oc1ccc(F)c2cccnc12	5 µg/mL (≈ 30.6 µM)
CCOC(=O)CN1C(=O)S/C(=C/c2ccc(C)o2)C1=O	29.2 µg/mL (≈ 98.9 µM)
CCCCNC(=O)OCCSCCS(=O)(=O)c1ccc(Cl)cc1	0.9 µg/mL (≈ 2.37 µM)
O=C(c1cc(-c2ccc(F)cc2)nc2ccccc12)N1CCC1	> 46 µg/mL
COc1cc(OC)cc(-c2nc(-c3cccs3)no2)c1	< 0.3 µg/mL
Cc1nc([N+](=O)[O-])cn1CC(O)c1ccc(F)cc1 (configuration not stated)	> 39.8 µg/mL
O=C1NCCCCC1NS(=O)(=O)c1ccccc1 (configuration not stated)	> 40.2 µg/mL
O=S(=O)(c1cccs1)N1CCN(c2ccc(Cl)cc2)CC1	< 0.4 µg/mL
O=Cc1c[nH]c2cccc(OCc3ccccc3)c12	4.6 µg/mL (≈ 18.3 µM)

Structure (SMILES)	solubility kinetic
N#CCCN1CCN(S(=O)(=O)c2ccc3c(c2)CCC3)CC1	> 47.9 µg/mL
Cc1cc(C)[n+](-c2ccc(Oc3ccccc3)c(S(=O)(=O)[O-])c2)[nH]1	> 51.7 µg/mL
C/C(=N\NC(=O)c1ccc(Cl)cc1)c1cccnc1	> 41.1 µg/mL
COc1ccc(NC(=O)c2ccc(N3CCCC3=O)cc2)cc1Cl	2.1 µg/mL (≈ 6.09 µM)
CC(=O)c1cn(C)c(=O)c2ccccc12	> 30.2 µg/mL
Cc1ccc(NC(=O)C(=O)NCCc2c[nH]c3ccccc23)cc1C	< 0.2 µg/mL
COc1ccc(C(=O)NCCCNC(=O)c2ccco2)cc1OC	> 49.9 µg/mL
O=C(CNC(=O)COc1ccccc1)NCc1cccnc1	> 44.9 µg/mL
CCN(C(=O)c1ccc(Br)o1)C1CCS(=O)(=O)C1 (configuration not stated)	> 50.4 µg/mL
O=C1C(CSCc2ccccc2)NC(=S)N1c1ccccc1 (configuration not stated)	2.9 µg/mL (≈ 8.83 µM)
O=C(NCc1ccco1)c1ccc(NS(=O)(=O)c2cccc(F)c2)cc1	> 56.2 µg/mL
Cl.NCCOc1ccc(C23CC4CC(CC(C4)C2)C3)cc1	> 46.2 µg/mL
Cc1ccc(CN2C(=O)CNC2=S)cc1	> 33 µg/mL
O=C(O)CC1(CC(=O)NCc2ccc(F)cc2)CCCCC1	> 46.1 µg/mL
CC(=O)c1c(OCC(=O)N(C)C2CCCCC2)ccc2c(C)cc(=O)oc12	> 55.7 µg/mL

Results, then the compound that gave them:

solubility kinetic	Structure (SMILES)
> 45.3 µg/mL	CCN(CCO)c1ncnc2onc(-c3ccc(F)cc3)c12
> 45 µg/mL	CCN(c1ccccc1)c1nc2nonc2nc1NCCO
32.9 µg/mL (≈ 112 µM)	COc1cccc(CNc2ncc(-c3ccccc3)n2C)c1
> 50.6 µg/mL	CCOP(=O)(c1ccc(N(C)C)cc1)C(O)c1ccccc1F (configuration not stated)
29.6 µg/mL (≈ 99.4 µM)	CCOC(=O)C(Cc1c(F)cccc1Cl)c1ccno1 (configuration not stated)
> 49.2 µg/mL	CCn1cnc2c1c(=O)n(CC(=O)O)c(=O)n2Cc1ccccc1
> 44.6 µg/mL	Cc1cccc(C(=O)OCC(=O)N(C)c2ccccc2)c1C
54.4 µg/mL (≈ 148 µM)	NS(=O)(=O)c1ccc(CNS(=O)(=O)c2cccc3nonc23)cc1
> 40.4 µg/mL	COc1ccc(C(=O)NCC(=O)c2ccccc2)cc1
20.9 µg/mL (≈ 50.4 µM)	CCN(c1ccccc1)S(=O)(=O)c1ccc(C(=O)N(C)Cc2cccs2)cc1
1 µg/mL (≈ 3.02 µM)	Cc1ccccc1Nc1nc(N)nc(-c2oc3ccccc3c2C)n1
> 58.8 µg/mL	Cn1c(=O)n(CC(N)=O)c(=O)c2c1nc(Br)n2Cc1ccccc1
5.8 µg/mL (≈ 19.1 µM)	CCC(C(=O)Nc1ccsc1C(=O)OC)c1ccccc1 (configuration not stated)
26.4 µg/mL (≈ 96.1 µM)	CN(Cc1ccccc1)/C(=N/O)c1cccc(Cl)c1
42.4 µg/mL (≈ 128 µM)	CS(=O)(=O)Nc1ccc2c(c1)OCC(=O)N2Cc1ccccc1
10.4 µg/mL (≈ 31.1 µM)	COc1ccccc1S(=O)(=O)Nc1ccc2nc(C)sc2c1
